Patent publication US11129820B2, “Ferroportin-inhibitor salts” (Vifor (International) AG, priority 2017, dated 2021)
Marks after values point to notes of the source that are not given here.

How the values were obtained:
naïve WT C57BL/6 mice = assay: Hypoferremia in naïve mice; format: in vivo, mouse; details: Mus musculus, po, 3 h, relative to vehicle, read-out: Serum Iron Reduction at 3 h (%); for inhibition in vivo at 10 mg/kg: Dose 10 mg/kg p.o.; for inhibition in vivo at 30 mg/kg: Dose 30 mg/kg p.o.; for inhibition in vivo at 100 mg/kg: Dose 100 mg/kg p.o.
Method: Injection of synthetic hepcidin in wild-type (WT) naïve mice results in a reduction of serum iron levels (40-50% from the vehicle control) with a maximal effect at 3-4 hours post treatment (Rivera, 2005; FIG. 12A).
Female C57BL/6 mice (Janvier, France) at age of 9 weeks are fed a standard diet (Harlan Provimi Kliba 3436) and treated per os (p.o.) with compounds or the corresponding amount of vehicle at a volume of 10 ml/kg body weight. Fpn inhibitors are formulated in 0.5% methylcellulose/water or 20% cremophor EL/water and dosed p.o. in mice at 10, 30 or 100 mg/kg body weight. Three hours later, mice are pre-terminally anesthetized in isoflurane chambers and blood is collected by retro-orbital bleeding. Mice are sacrificed by cervical dislocation and spleens, livers and duodena were harvested and used for biomarker analysis. All experiments are conducted in compliance with the license approved by the responsible veterinarian authorities. Serum is isolated by centrifugation of blood into gel-containing microtainers and serum iron is determined by the MULTIGENT Iron assay (Abbott Diagnostics, 6K95). Eight mice per group are used and one-way ANOVA with Bonferroni's multiple comparison test is performed to analyze the statistical differences between the experimental groups.
Table 6 Efficacy of Fpn inhibitors tested in the naïve mouse hypoferremia model. Serum iron reduction induced by selected ferroportin inhibitors dosed p.o. in naïve WT C57BL/6 mice at 10, 30 and 100 mg/kg. Relative serum iron reduction at 3 h after dosing was calculated by subtracting the average of serum iron values of animals dosed with the Fpn inhibitor from that of vehicle-treated animals. The difference in average serum iron values between vehicle and compound treated groups was then divided by the average of serum iron of the vehicle control group and listed as percentage.

anemic Wistar rats = assay: Prevention of iron absorption in anemic rats; format: in vivo, rat; details: n=5
Method: To assess the in vivo efficacy of ferroportin (Fpn) inhibitors to block iron absorption, a series of Fpn inhibitors is tested in an anemic rat model for iron absorption. Wistar rats (3-4 weeks old, n=5, Janvier Labs) are fed a low iron diet (Provimi-Kliba, Cat. 2039) until their hemoglobin (Hb) values reach 7-8 g/dl one day before dosing of the Fpn inhibitor compounds. One hour before oral application of 0.5 mg/kg of ferrous sulfate, test compounds formulated in methyl cellulose or Cremophor are dosed orally. Blood samples are taken by tail vein puncture one hour before administration of iron (−1 h), immediately after dosing of the Fpn inhibitors (0 h) and one hour (1 h), three hours (3 h) and occasionally up to 6 hours (6 h) after dosing of the test compounds. Serum iron levels are measured (Abbott Diagnostics, Cat. 6K95) and inhibition of the rise of serum iron three hours after dosing of the test compound is calculated as a measure for efficacy of the Fpn inhibitors in blocking iron absorption (Table 7).

O=C(NCc1ncccc1F)c1cnc(CCNCCc2nc3ccccc3[nH]2)o1 [Example Compound No. 1]
inhibition in vivo at 10 mg/kg (naïve WT C57BL/6 mice): 0% | inhibition in vivo at 30 mg/kg (naïve WT C57BL/6 mice): 28% | inhibition in vivo at 100 mg/kg (naïve WT C57BL/6 mice): 51% | Serum Iron Inhibition (%) at 3 h (anemic Wistar rats; Dose 3 mg/kg oral): 2.1% | Serum Iron Inhibition (%) at 3 h (anemic Wistar rats; Dose 10 mg/kg oral): 42.6** % | Serum Iron Inhibition (%) at 3 h (anemic Wistar rats; Dose 30 mg/kg oral): 64.9*** %

O=C(NCc1ncccc1F)c1cnc(C2CN(CCc3nc4ccccc4[nH]3)C2)o1 [Example Compound No. 2]
inhibition in vivo at 10 mg/kg (naïve WT C57BL/6 mice): 9% | inhibition in vivo at 30 mg/kg (naïve WT C57BL/6 mice): 26% | inhibition in vivo at 100 mg/kg (naïve WT C57BL/6 mice): 50% | Serum Iron Inhibition (%) at 3 h (anemic Wistar rats; Dose 3 mg/kg oral): −3% | Serum Iron Inhibition (%) at 3 h (anemic Wistar rats; Dose 10 mg/kg oral): 29** % | Serum Iron Inhibition (%) at 3 h (anemic Wistar rats; Dose 30 mg/kg oral): 57*** %

O=C(NCc1ncccc1F)c1csc(CCNCc2nc3ccccc3[nH]2)n1 [Example Compound No. 40]
inhibition in vivo at 10 mg/kg (naïve WT C57BL/6 mice): 10% | inhibition in vivo at 30 mg/kg (naïve WT C57BL/6 mice): 30% | inhibition in vivo at 100 mg/kg (naïve WT C57BL/6 mice): 50% | Serum Iron Inhibition (%) at 3 h (anemic Wistar rats; Dose 10 mg/kg oral): 32** % | Serum Iron Inhibition (%) at 3 h (anemic Wistar rats; Dose 30 mg/kg oral): 53*** % | Serum Iron Inhibition (%) at 3 h (anemic Wistar rats; Dose 100 mg/kg oral): 97*** %
